For 19 compounds, GI50 results are on record in patent US20240262795A1, “PYRAZINE COMPOUNDS AS INHIBITORS OF FLT3” (Biomea Fusion, Inc., priority 2021, published 2024).

For this assay, the target named is T1, Ba/F3 cell lines stably expressing human FLT3-ITD-F691L (Homo sapiens, UniProt P36888, F691L, cells depend on it, form not given).
T1 construct: Ba/F3-FLT3-ITD-F691L Relative IC50
T1 sequence (P36888 1-993 F691L): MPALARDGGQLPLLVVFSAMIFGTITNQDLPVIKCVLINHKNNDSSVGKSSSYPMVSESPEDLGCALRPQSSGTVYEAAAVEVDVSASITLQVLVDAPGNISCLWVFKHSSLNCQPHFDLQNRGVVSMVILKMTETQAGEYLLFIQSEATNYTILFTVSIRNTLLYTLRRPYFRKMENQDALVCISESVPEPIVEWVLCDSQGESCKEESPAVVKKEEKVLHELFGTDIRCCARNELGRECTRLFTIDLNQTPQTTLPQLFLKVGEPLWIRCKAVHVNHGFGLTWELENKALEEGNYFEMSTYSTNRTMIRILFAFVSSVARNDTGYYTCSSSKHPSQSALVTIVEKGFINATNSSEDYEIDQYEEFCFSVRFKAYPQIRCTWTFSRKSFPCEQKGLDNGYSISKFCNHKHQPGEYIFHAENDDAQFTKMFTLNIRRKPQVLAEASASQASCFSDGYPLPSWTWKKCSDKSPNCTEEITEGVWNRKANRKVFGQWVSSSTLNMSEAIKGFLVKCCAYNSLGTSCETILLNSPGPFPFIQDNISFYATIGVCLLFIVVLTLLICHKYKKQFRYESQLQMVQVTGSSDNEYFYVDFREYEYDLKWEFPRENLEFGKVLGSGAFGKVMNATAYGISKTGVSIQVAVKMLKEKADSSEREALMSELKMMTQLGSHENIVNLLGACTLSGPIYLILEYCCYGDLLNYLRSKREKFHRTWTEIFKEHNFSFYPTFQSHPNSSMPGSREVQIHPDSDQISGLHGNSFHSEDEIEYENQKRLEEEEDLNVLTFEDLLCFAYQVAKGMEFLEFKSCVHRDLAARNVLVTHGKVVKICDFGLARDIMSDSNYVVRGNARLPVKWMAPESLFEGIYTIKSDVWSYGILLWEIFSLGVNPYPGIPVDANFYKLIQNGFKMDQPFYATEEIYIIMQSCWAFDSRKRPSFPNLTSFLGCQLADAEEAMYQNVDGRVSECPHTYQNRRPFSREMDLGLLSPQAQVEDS
Put plainly: FLT3 mutant assay, cell viability, Ba/F3-FLT3-ITD-F691L. It counts as cell-based, mouse. As to conditions: IC50 (3 days), CellTiter-Glo; read-out: Ba/F3-FLT3-ITD-F691L Relative IC50. As for the experimental part: Activity of compounds on FLT3 activating mutations were assessed using Ba/F3 cell lines (mouse pro-B cell line) stably expressing human FLT3-ITD, FLT3-ITD-D835Y or FLT3-ITD-F691L. […] The supernatant collected were concentrated with PEG8000 and used to infect Ba/F3 cells at 1-5 MOI in serum-free media with polybrene. Infected Ba/F3 cells were selected in presence of puromycin, and surviving cells verified by sequencing and/or protein detection assay. Constitutive expression of the activating kinase transforms the Ba/F3 cells into IL-3-independent growth allowing them to be cultured in the absence of IL-3. […] For use in compound testing, cells in exponential growth phase were harvested, counted, and resuspended at the required cell density. Cell viability assays were performed in 96-well assay plates and 90 μL of cell suspension seeded per well. Serial dilutions of the test compounds and assay controls and were freshly prepared for the assay. Nine-point 3× serial dilutions were prepared in 100% DMSO (400× stock) and subsequently diluted in cell culture media to obtain 10× stocks. Ten microliters of the 10× stock serial dilutions were added to the appropriate wells (triplicate wells per condition) in the assay plate. […] Assay plates were incubated for 3 days in at 37° C. in a humidified incubator with 5% CO2.
Inhibition rate (IR) of the tested compounds was determined by the following formula: IR (%)=(1−(RLU compound−RLU blank)/(RLU control−RLU blank))*100%. The inhibitions of different dose of compound were calculated in Excel file, and the dose responses were analysed using GraphPad Prism to evaluate related parameters, such as Bottom, Top and IC50. For the IC50 analysis by GraphPad Prism, the equation below was used to fit curve: Y=Bottom+(Top−Bottom)/(1+10^((LogIC50−X)*HillSlope))
A general note: ATP-based viability assays read luminescence as a measure of living cells.
As to `CCc1nc(C(N)=O)c(Nc2ccc(N3CCC(N4CCN(C)CC4)CC3)c(OC)c2)nc1NC1CCOCC1` [Gilteritinib, gilteritinib, reference compound], the GI50 lay in the range of 10 to 100 nM.
In the case of `CCc1nc(C(N)=O)c(Nc2cccc(CCNC(=O)CN(C)C(=O)/C=C/CN3CCC3)c2)nc1N(C)CC` [Compound 516A, (E)-3-((3-(2-(2-(4-(azetidin-1-yl)-N-methylbut-2-enamido)acetamido)ethyl)phenyl)amino)-6-ethyl-5-(ethyl(methyl)amino) pyrazine-2-carboxamide], the GI50 fell in the range of 1 to 10 nM.
As for `CCc1nc(C(N)=O)c(Nc2ccnc(CCNC(=O)[C@H](C)N(C)C(=O)/C=C/CN(C)C)c2)nc1C1CC1` [Compound 310, (S,E)-5-cyclopropyl-3-((2-(2-(2-(4-(dimethylamino)-N-methylbut-2-enamido)propanamido)ethyl)pyridin-4-yl)amino)-6-ethylpyrazine-2-carboxamide], the GI50 lay in the range of 10 to 100 nM.
As for `Cc1nc(C(N)=O)c(Nc2cccc(CCNC(=O)[C@H](C)N(C)C(=O)/C=C/CN(C)C)c2)nc1N(C)C(C)C` [Compound 232, (S, E)-3-((3-(2-(2-(4-(dimethylamino)-N-methylbut-2-enamido)propanamido)ethyl)phenyl)amino)-5-(isopropyl (methyl)amino)-6-methylpyrazine-2-carboxamide], the figure is 1 to 10 nM; as for `CCc1nc(Nc2cccc([C@@H](C)CNC(=O)CN(C)C(=O)/C=C/CN3CCC3)c2)c(C(N)=O)nc1CC` [Compound 508, (R, E)-3-((3-(1-(2-(4-(azetidin-1-yl)-N-methylbut-2-enamido)acetamido)propan-2-yl)phenyl)amino)-5,6-diethylpyrazine-2-carboxamide], 1 to 10 nM; as for `CCc1nc(C(N)=O)c(Nc2cccc(CCNC(=O)[C@H](C)N(C)C(=O)/C=C/CNC)c2)nc1N(C)C(C)C` [Compound 307, (S,E)-6-ethyl-5-(isopropyl(methyl)amino)-3-((3-(2-(2-(N-methyl-4-(methylamino)but-2-enamido)propanamido)ethyl)phenyl)amino)pyrazine-2-carboxamide], 10 to 100 nM.
As for `CCc1nc(C(N)=O)c(Nc2cccc([C@@H](C)CNC(=O)CN(C)C(=O)/C=C/CN3CCC3)c2)nc1C1CC1` [Compound 506, (R,E)-3-((3-(1-(2-(4-(azetidin-1-yl)-N-methylbut-2-enamido)acetamido)propan-2-yl)phenyl)amino)-5-cyclopropyl-6-ethylpyrazine-2-carboxamide], the figure is 1 to 10 nM.
As for `CCc1nc(C(N)=O)c(Nc2cccc(CCNC(=O)CN(C)C(=O)/C=C/CN3CCC3)c2)nc1OC(C)C` [Compound 603, (E)-3-((3-(2-(2-(4-(azetidin-1-yl)-N-methylbut-2-enamido)acetamido)ethyl)phenyl)amino)-6-ethyl-5-isopropoxypyrazine-2-carboxamide], the figure is 10 to 100 nM; as for `CCOc1nc(Nc2cccc(CCNC(=O)CN(C)C(=O)/C=C/CN3CCC3)c2)c(C(N)=O)nc1CC` [Compound 602, (E)-3-((3-(2-(2-(4-(azetidin-1-yl)-N-methylbut-2-enamido)acetamido)ethyl)phenyl)amino)-5-ethoxy-6-ethylpyrazine-2-carboxamide], 1 to 10 nM; as for `CCc1nc(C(N)=O)c(Nc2cccc(CCNC(=O)CN(C)C(=O)/C=C/CN(C)C)c2)nc1C1CC1` [Compound 219, (E)-5-cyclopropyl-3-((3-(2-(2-(4-(dimethylamino)-N-methylbut-2-enamido)acetamido)ethyl)phenyl)amino)-6-ethylpyrazine-2-carboxamide], 1 to 10 nM.
Regarding `CCc1nc(C(N)=O)c(Nc2cccc([C@@H](C)CNC(=O)CN(C)C(=O)/C=C/CN(C)C)c2)nc1C1CC1` [Compound 504, (R,E)-5-cyclopropyl-3-((3-(1-(2-(4-(dimethylamino)-N-methylbut-2-enamido)acetamido)propan-2-yl)phenyl)amino)-6-ethylpyrazine-2-carboxamide], the GI50 lay in the range of 1 to 10 nM.
As to `CCc1nc(C(N)=O)c(Nc2cc(F)cc(CCNC(=O)CN(C)C(=O)/C=C/CN3CCC3)c2)nc1C1CC1` [Compound 516, (E)-3-((3-(2-(2-(4-(azetidin-1-yl)-N-methylbut-2-enamido)acetamido)ethyl)-5-fluorophenyl)amino)-5-cyclopropyl-6-ethylpyrazine-2-carboxamide], the GI50 is 10 to 100 nM.
As for `CCCc1nc(Nc2cccc([C@@H](C)CNC(=O)CN(C)C(=O)/C=C/CN3CCC3)c2)c(C(N)=O)nc1CC` [Compound 507, (R,E)-3-((3-(1-(2-(4-(azetidin-1-yl)-N-methylbut-2-enamido)acetamido)propan-2-yl)phenyl)amino)-6-ethyl-5-propylpyrazine-2-carboxamide], the figure is 1 to 10 nM.
In the case of `CCc1nc(C(N)=O)c(Nc2cccc(CCNC(=O)CN(C)C(=O)/C=C/CN(C)C)c2)nc1N(C)CC` [Compound 252, (E)-3-((3-(2-(2-(4-(dimethylamino)-N-methylbut-2-enamido)acetamido)ethyl)phenyl)amino)-6-ethyl-5-(ethyl (methyl)amino) pyrazine-2-carboxamide] it was 1 to 10 nM; in that of `CCc1nc(C(N)=O)c(Nc2cccc(CCNC(=O)[C@H](C)N(C)C(=O)/C=C/CN(C)C)c2)nc1NC(C)C` [Compound 205, (S,E)-3-((3-(2-(2-(4-(dimethylamino)-N-methylbut-2-enamido)propanamido)ethyl)phenyl)amino)-6-ethyl-5-(isopropylamino)pyrazine-2-carboxamide], 1 to 10 nM.
In the case of `CCc1nc(C(N)=O)c(Nc2cccc(CCNC(=O)[C@H](C)N(C)C(=O)/C=C/CN(C)C)c2)nc1N(C)C(C)C` [Compound 204, (S,E)-3-((3-(2-(2-(4-(dimethylamino)-N-methylbut-2-enamido)propanamido)ethyl)phenyl)amino)-6-ethyl-5-(isopropyl(methyl)amino)pyrazine-2-carboxamide] it was 1 to 10 nM; in that of `CCc1nc(C(N)=O)c(Nc2cccc([C@@H](C)CNC(=O)CN(C)C(=O)/C=C/CN3CCC3)c2)nc1N(C)CC` [Compound 518, (R,E)-3-((3-(1-(2-(4-(azetidin-1-yl)-N-methylbut-2-enamido)acetamido)propan-2-yl)phenyl)amino)-6-ethyl-5-(ethyl(methyl)amino)pyrazine-2-carboxamide], 1 to 10 nM; in that of `Cc1nc(C(N)=O)c(Nc2cccc(CCNC(=O)CN(C)C(=O)/C=C/CN(C)C)c2)nc1N(C)C(C)C` [Compound 250, (E)-3-((3-(2-(2-(4-(dimethylamino)-N-methylbut-2-enamido)acetamido)ethyl)phenyl)amino)-5-(isopropyl(methyl)amino)-6-methylpyrazine-2-carboxamide], 1 to 10 nM.
On to `CCc1nc(C(N)=O)c(Nc2ccnc(CCNC(=O)[C@H](C)N(C)C(=O)/C=C/CN(C)C)c2)nc1N(C)C(C)C` [Compound 605, (S, E)-3-((2-(2-(2-(4-(dimethylamino)-N-methylbut-2-enamido)propanamido)ethyl)pyridin-4-yl)amino)-6-ethyl-5-(isopropyl (methyl)amino) pyrazine-2-carboxamide], for which the GI50 fell in the range of 10 to 100 nM.
